Experimental data taken from ChEMBL document CHEMBL3046322, “Insect growth regulatory effects by diterpenes from Calceolaria talcana Grau & Ehrhart (Calceolariaceae: Scrophulariaceae) against Spodoptera frugiperda and Drosophila melanogaster” (2013).

Experiments:
Assay type in all cases: functional
Spodoptera frugiperda [1] = assay: Growth inhibitory activity against first-instar larval stage of Spodoptera frugiperda (fall armyworm) fed with compound incorporated diet assessed as weight gained at 50 ug/ml after 21 days (reference value: 100%)
Drosophila melanogaster [2] = assay: Insecticidal activity against Drosophila melanogaster larvae fed with compound incorporated diet assessed as mortality at 50 ug/ml after 72 hr by not choice test (reference value: 0%)
Spodoptera frugiperda [3] = assay: Growth inhibitory activity against Spodoptera frugiperda (fall armyworm) larvae fed with compound containing diet assessed as growth index at 5 ug/ml (reference value: 0.95 +/-0.02 no_unit)
Spodoptera frugiperda [4] = assay: Acute toxicity against last larval stage of Spodoptera frugiperda (fall armyworm) assessed as survival at 5 ug/ml applied topically onto abdomen measured after 24 hr (reference value: 98.8 +/-3.5%)
Spodoptera frugiperda [5] = assay: Growth inhibitory activity against Spodoptera frugiperda (fall armyworm) larvae fed with compound containing diet assessed as relative growth index at 35 ug/ml (reference value: 1.0 no_unit)
Spodoptera frugiperda [6] = assay: Growth inhibitory activity against first-instar larval stage of Spodoptera frugiperda (fall armyworm) fed with compound incorporated diet assessed as length gained at 10 ug/ml after 7 days (reference value: 100%)
Drosophila melanogaster [7] = assay: Insecticidal activity against Drosophila melanogaster larvae fed with compound incorporated diet assessed as mortality at 20 ug/ml after 72 hr by not choice test (reference value: 0%)
Spodoptera frugiperda [8] = assay: Growth inhibitory activity against Spodoptera frugiperda (fall armyworm) larvae fed with compound containing diet assessed as reduction in adult emergence at 20 ug/ml
Spodoptera frugiperda [9] = assay: Growth inhibitory activity against first-instar larval stage of Spodoptera frugiperda (fall armyworm) fed with compound incorporated diet assessed as weight gained at 10 ug/ml after 7 days (reference value: 100%); set-up: scale not given: the % may be the effect or the level left
Spodoptera frugiperda [10] = assay: Growth inhibitory activity against Spodoptera frugiperda (fall armyworm) larvae fed with compound containing diet assessed as relative growth index at 20 ug/ml (reference value: 1.0 no_unit)
Spodoptera frugiperda [11] = assay: Growth inhibitory activity against first-instar larval stage of Spodoptera frugiperda (fall armyworm) fed with compound incorporated diet assessed as weight gained at 5 ug/ml after 21 days (reference value: 100%)
Spodoptera frugiperda [12] = assay: Growth inhibitory activity against first-instar larval stage of Spodoptera frugiperda (fall armyworm) fed with compound incorporated diet assessed as weight gained at 35 ug/ml after 7 days (reference value: 100%); set-up: scale not given: the % may be the effect or the level left
Spodoptera frugiperda [13] = assay: Insecticidal activity against first-instar larval stage of Spodoptera frugiperda (fall armyworm) fed with compound incorporated diet assessed as mortality at 50 to 100 ug/ml after 7 days
Spodoptera frugiperda [14] = assay: Growth inhibitory activity against Spodoptera frugiperda (fall armyworm) larvae fed with compound containing diet assessed as growth index at 10 ug/ml (reference value: 0.95 +/-0.02 no_unit)
Spodoptera frugiperda [15] = assay: Growth inhibitory activity against Spodoptera frugiperda (fall armyworm) larvae fed with compound containing diet assessed as relative growth index at 10 ug/ml (reference value: 1.0 no_unit)
Drosophila melanogaster [16] = assay: Insecticidal activity against Drosophila melanogaster larvae fed with compound incorporated diet assessed as mortality at 10 ug/ml after 72 hr by not choice test (reference value: 0%)
Spodoptera frugiperda [17] = assay: Growth inhibitory activity against Spodoptera frugiperda (fall armyworm) larvae fed with compound containing diet assessed as delay in time to pupation at 5 ug/ml
Drosophila melanogaster [18] = assay: Insecticidal activity against Drosophila melanogaster larvae fed with compound incorporated diet assessed as mortality at 35 ug/ml after 72 hr by not choice test (reference value: 0%)
Drosophila melanogaster [19] = assay: Insecticidal activity against Drosophila melanogaster larvae fed with compound incorporated diet assessed as mortality at 5 ug/ml after 72 hr by not choice test (reference value: 0%)
Spodoptera frugiperda [20] = assay: Growth inhibitory activity against Spodoptera frugiperda (fall armyworm) larvae fed with compound containing diet assessed as relative growth index at 50 ug/ml (reference value: 1.0 no_unit)
Spodoptera frugiperda [21] = assay: Acute toxicity against last larval stage of Spodoptera frugiperda (fall armyworm) assessed as survival at 50 ug/ml applied topically onto abdomen measured after 24 hr (reference value: 98.8 +/-3.5%)
Spodoptera frugiperda [22] = assay: Acute toxicity against last larval stage of Spodoptera frugiperda (fall armyworm) assessed as survival at 20 ug/ml applied topically onto abdomen measured after 24 hr (reference value: 98.8 +/-3.5%)
Spodoptera frugiperda [23] = assay: Acute toxicity against last larval stage of Spodoptera frugiperda (fall armyworm) assessed as survival at 35 ug/ml applied topically onto abdomen measured after 24 hr (reference value: 98.8 +/-3.5%)
Spodoptera frugiperda [24] = assay: Acute toxicity against last larval stage of Spodoptera frugiperda (fall armyworm) assessed as survival at 70 ug/ml applied topically onto abdomen measured after 24 hr (reference value: 98.8 +/-3.5%)
Spodoptera frugiperda [25] = assay: Growth inhibitory activity against Spodoptera frugiperda (fall armyworm) larvae fed with compound containing diet assessed as growth index at 50 ug/ml (reference value: 0.95 +/-0.02 no_unit)
Drosophila melanogaster [26] = assay: Insecticidal activity against Drosophila melanogaster larvae fed with compound incorporated diet assessed as mortality at 100 ug/ml after 72 hr by not choice test (reference value: 0%)
Spodoptera frugiperda [27] = assay: Growth inhibitory activity against Spodoptera frugiperda (fall armyworm) larvae fed with compound containing diet assessed as reduction in survival pupation at >35 ug/ml
Spodoptera frugiperda [28] = assay: Growth inhibitory activity against Spodoptera frugiperda (fall armyworm) larvae fed with compound containing diet assessed as delay in time to pupation at 20 ug/ml

| Structure (SMILES) | Weight gain relative to control (Spodoptera frugiperda [1]) [%] | mortality at 50 µg/mL (Drosophila melanogaster [2]) [%] | Growth_index (Spodoptera frugiperda [3]) | Activity (Spodoptera frugiperda [4]) [%] | Growth_index (Spodoptera frugiperda [5]) | Larval length gained (% of control) (Spodoptera frugiperda [6]) [%] | mortality at 20 µg/mL (Drosophila melanogaster [7]) [%] | inhibition at 20 µg/mL (Spodoptera frugiperda [8]) [%] | Activity (Spodoptera frugiperda [9]) [%] | Growth_index (Spodoptera frugiperda [10]) | Larval weight gain relative to control (Spodoptera frugiperda [11]) [%] | Activity (Spodoptera frugiperda [12]) [%] | mortality (Spodoptera frugiperda [13]) [%] | Growth_index (Spodoptera frugiperda [14]) | Growth_index (Spodoptera frugiperda [15]) | mortality at 10 µg/mL (Drosophila melanogaster [16]) [%] | Activity (Spodoptera frugiperda [22]) [%] | Activity (Spodoptera frugiperda [23]) [%] | mortality at 100 µg/mL (Drosophila melanogaster [26]) [%] | other results |
| --- | --- | --- | --- | --- | --- | --- | --- | --- | --- | --- | --- | --- | --- | --- | --- | --- | --- | --- | --- | --- |
| C=CC(C)(C)C1=C(O)C(=O)c2ccccc2C1=O | 0 | 100 | 0.71 | 35.5 | 0.1 | 24.2 | 65 | 0 | 29.3 | 0.12 | 35.6 | 5 | 100 | 0.41 | 0.45 | 30 | – | – | – | – |
| C=C[C@]1(C)CC[C@H]2C(=CC[C@@H]3[C@](C)(CO)CC[C@@H]4C[C@@]432)C1 | 0 | – | 0.41 | 27 | 0.1 | 39 | 98 | 0 | 17.1 | 0.19 | 20.1 | 1.4 | 100 | 0.21 | 0.25 | 30 | – | – | – | Time (Spodoptera frugiperda [17]): >24 days; mortality at 35 µg/mL (Drosophila melanogaster [18]): 100%; mortality at 5 µg/mL (Drosophila melanogaster [19]): 0% |
| CC(C)c1ccc2c(c1)CC[C@H]1[C@](C)(CO)CCC[C@]21C [POMIFERIN A] | 33.6 | 77 | 0.97 | 75 | 0.75 | 79 | 67 | 0 | 81.3 | 0.96 | 93.5 | 42.3 | – | 0.93 | 0.98 | 13.3 | 51 | 6.9 | 82.9 | Growth_index (Spodoptera frugiperda [20]): 0.71; Activity (Spodoptera frugiperda [21]): 3.9%; Activity (Spodoptera frugiperda [24]): 0%; Growth_index (Spodoptera frugiperda [25]): 0.54; inhibition (INH) (Spodoptera frugiperda [27]): 0% |
| C[C@H]1[C@H](C)CC[C@]2(C(=O)O)CC[C@]3(C)C(=CC[C@@H]4[C@@]5(C)CC[C@H](O)C(C)(C)[C@@H]5CC[C@]43C)[C@H]12 [URSOLIC ACID] | 0 | 65.2 | 0.93 | 73 | – | 10.7 | 15.1 | 0 | 53.3 | 0.29 | 51.9 | 49.2 | 100 | 0.69 | 0.73 | 7 | 20.1 | 7.9 | 100 | Time (Spodoptera frugiperda [28]): >24 days |
